Where a SMILES comes first, the peptide text is derived from it. Bridges are numbered along the chain shown (N, C = ends). [ ]: non-standard residue; d: D form. 2Nal = N[C@@H](Cc1ccc2ccccc2c1)C(=O)O; NMeF = CN[C@@H](Cc1ccccc1)C(=O)O; dTic = O=C(O)[C@H]1Cc2ccccc2CN1; dThz = O=C(O)[C@H]1CSCN1
Target: T1, P-selectin (Homo sapiens, UniProt P16109)
T1 construct: P-selectin is isolated from human platelet lysates; from tissue; host or cells: human platelets (outdated platelet packs from a blood bank)
T1 sequence (P16109 42-830): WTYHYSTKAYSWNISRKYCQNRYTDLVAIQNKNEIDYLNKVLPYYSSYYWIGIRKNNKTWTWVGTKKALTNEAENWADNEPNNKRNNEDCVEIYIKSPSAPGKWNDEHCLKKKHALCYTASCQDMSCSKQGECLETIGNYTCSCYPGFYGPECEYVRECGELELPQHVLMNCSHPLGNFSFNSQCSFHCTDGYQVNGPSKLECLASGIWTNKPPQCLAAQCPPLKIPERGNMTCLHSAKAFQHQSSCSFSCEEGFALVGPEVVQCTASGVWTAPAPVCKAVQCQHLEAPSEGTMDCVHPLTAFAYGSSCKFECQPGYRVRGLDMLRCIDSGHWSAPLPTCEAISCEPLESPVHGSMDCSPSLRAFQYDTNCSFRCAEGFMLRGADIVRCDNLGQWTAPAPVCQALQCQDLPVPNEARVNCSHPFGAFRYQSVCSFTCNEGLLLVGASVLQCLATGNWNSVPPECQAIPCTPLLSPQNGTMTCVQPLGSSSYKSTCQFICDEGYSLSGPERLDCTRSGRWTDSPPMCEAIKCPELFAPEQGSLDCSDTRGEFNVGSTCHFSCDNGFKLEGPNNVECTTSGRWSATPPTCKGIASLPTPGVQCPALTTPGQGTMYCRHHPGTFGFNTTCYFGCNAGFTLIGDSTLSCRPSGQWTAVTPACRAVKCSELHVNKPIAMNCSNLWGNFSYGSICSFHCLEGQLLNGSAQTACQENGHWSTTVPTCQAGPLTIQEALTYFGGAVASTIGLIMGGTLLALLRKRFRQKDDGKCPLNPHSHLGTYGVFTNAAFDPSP
Test: Inhibition of human neutrophil adhesion to purified P-selectin immobilized on plastic wells
Assay type: cell-based
Settings: inhibiting the binding of human neutrophils to P-selectin
From the text: Peptides can be screened for their ability to inhibit adhesion to cells, for example, neutrophil adhesion to purified P-selectin immobilized on plastic wells, using the assay described by Geng, et al., Nature 343, 757-760 (1990). Human neutrophils are isolated from heparinized whole blood by density gradient centrifugation on Mono-Poly resolving media, Flow Laboratories. Neutrophil suspensions are greater than 98% pure and greater than 95% viable by trypan blue exclusion. For adhesion assays, neutrophils are suspended at a concentration of 2×10^6 cells/mL in Hanks' balanced salt solution containing 1.26 mM Ca^2+ and 0.81 mM Mg^2+ (HBSS, Gibco) with […] human serum albumin (HBSS/HSA). Adhesion assays are conducted in triplicate in 96-well microliter plates, Corning, incubated at 4° C. overnight with 50 microliters of various protein solutions. P-selectin is isolated from human platelet lysates by immunoaffinity chromatography on antibody S12-Sepharose™ and ion-exchange chromatography on a Mono-Q™ column (FLPC, Pharmacia Fine Chemicals), as follows. Outdated human platelet packs (100 units) obtained from a blood bank and stored at 4° C. are pooled, adjusted to 5 mM EDTA at pH 7.5, centrifuged at 4,000 rpm for 30 minutes in 1 liter bottles, then washed three times with 1 liter of 0.1M NaCl, 20 mM Tris pH 7.5 (TBS), 5 mM EDTA, 5 mM benzamidine. The pellets are then resuspended in a minimum amount of wash buffer and made 1 mM in DIFP, then frozen in 50 mL screwtop tubes at -80° C. The frozen platelets are thawed and resuspended in 50 mL TBS, 5 mM benzamidine, 5 mM EDTA pH 7.5, […]. The suspension is frozen and thawed two times in a dry ice-acetone bath using a 600 mL lyophilizing flask, then homogenized in a glass/teflon mortar and pestle and made 1 mM in DIFP. The NaCl concentration is adjusted to 0.5M with a stock solution of 4M NaCl. After stirring the suspension at 4° C., it is centrifuged in polycarbonate tubes at 33,000 rpm for 60 minutes at 4° C. The supernatant (0.5M NaCl wash) is removed and saved; this supernatant contains the soluble form of P-selectin. Care is taken not to remove the top part of the pellet with the supernatant. The pellets are then homogenized in extraction buffer (TBS, 5 mM benzamidine, 5 mM EDTA, pH 7.5, 100 μM leupeptin, 2% Triton X-100). After centrifugation at 19,500 rpm for 25 minutes at 4° C., the supernatant is removed. The extraction procedure is repeated with the pellet and the supernatant is combined with the first supernatant. The combined extracts, which contain the membrane form of P-selectin, are adjusted to 0.5M NaCl. The soluble fraction (0.5M NaCl wash) and the membrane extract (also adjusted to 0.5M NaCl) are absorbed with separate pools of the monoclonal antibody S12 (directed to P-selectin) previously couple […]) at 5 mg/mL for 2 hours at 4° C. After letting the resins settle, the supernatants are removed. The S12 Affigel containing bound GMP-140 is then loaded into a column and washed overnight at 4° C. with 400 mL of 0.5M NaCl, 20 mM Tris pH 7.5, 0.01% Lubrol PX. Bound P-selectin is eluted from the S12 Affigel with 100 mL of 80% ethylene glycol, 1 mM MES pH 6.0, 0.01% Lubrol PX. Peak fractions with absorbance at 280 nm are pooled. Eluates are dialyzed against TBS with 0.05% Lubrol, then applied to a Mono Q column (FPLC from Pharmacia). The concentrated protein is step eluted with 2M NaCl, 20 mM Tris pH 7.5 (plus 0.05% Lubrol PX for the membrane fraction). Peak fractions are dialyzed into TBS pH 7.5 (plus 0.05% Lubrol PX for the membrane fraction). P-selectin is plated at 5 micrograms/mL and the control proteins: human serum albumin (Alb), platelet glycoprotein IIb/IIIa (IIb), von Willebrand factor (vWF), fibrinogen (FIB), thrombomodulin (TM), gelatin (GEL) or human serum (HS), are added at 50 micrograms/mL. […]

With `CC(C)[C@@H](NC(=O)[C@@H](Cc1c[nH]c2ccccc12)NC(=O)[C@H](NC(=O)[C@@H](Cc1c[nH]c2ccccc12)NC(=O)[C@H]1CSSC[C@@H](NC(=O)[C@@H](CCCCN)NC(=O)[C@H](N)CCCNC(=N)N)C(=O)NCC(=O)N2CSC[C@@H]2C(=O)N1)[C@H](C)O)C(N)=O` [(58)] (H-[dR][dK][dC]G[dThz][dC][dW][dT][dW][dV]-NH2; disulfide 3-6) as the compound, how does the IC50 read?
The IC50 was 186 µM.

`CC(C)[C@@H](NC(=O)[C@@H](Cc1c[nH]c2ccccc12)NC(=O)[C@H](NC(=O)[C@@H](Cc1c[nH]c2ccccc12)NC(=O)[C@H]1CSSC[C@@H](NC(=O)[C@@H](CCCCN)NC(=O)[C@H](N)CCCNC(=N)N)C(=O)NCC(=O)N2Cc3ccccc3C[C@@H]2C(=O)N1)[C@H](C)O)C(N)=O` [(59)] (H-[dR][dK][dC]G[dTic][dC][dW][dT][dW][dV]-NH2; disulfide 3-6) was tested. Which IC50 did it give?
Its IC50 is 18.3 µM.

For `CC(C)[C@@H](NC(=O)[C@@H](Cc1c[nH]c2ccccc12)NC(=O)[C@H](NC(=O)[C@@H](Cc1c[nH]c2ccccc12)NC(=O)[C@H]1CSSC[C@@H](NC(=O)[C@@H](CCCCN)NC(=O)[C@H](N)CCCNC(=N)N)C(=O)NCC(=O)N[C@@H](Cc2c[nH]c3ccccc23)C(=O)N1)[C@H](C)O)C(N)=O` [(60)] (H-[dR][dK][dC]GW[dC][dW][dT][dW][dV]-NH2; disulfide 3-6), which IC50 is on record?
The IC50 was 1.4 µM.

With `CC(C)[C@@H](NC(=O)[C@@H](Cc1c[nH]cn1)NC(=O)[C@H](NC(=O)[C@@H](Cc1c[nH]c2ccccc12)NC(=O)[C@H]1CSSC[C@@H](NC(=O)[C@@H](CCCCN)NC(=O)[C@H](N)CCCNC(=N)N)C(=O)NCC(=O)N[C@@H](Cc2ccccc2)C(=O)N1)[C@H](C)O)C(N)=O` [(61)] (H-[dR][dK][dC]GF[dC][dW][dT][dH][dV]-NH2; disulfide 3-6) as the compound, how does the IC50 read?
The IC50 was 65.4 µM.

`CC(C)[C@@H](NC(=O)[C@@H](CCCCN)NC(=O)[C@H](NC(=O)[C@@H](Cc1c[nH]c2ccccc12)NC(=O)[C@H]1CSSC[C@@H](NC(=O)[C@@H](CCCCN)NC(=O)[C@H](N)CCCNC(=N)N)C(=O)NCC(=O)N[C@@H](Cc2ccccc2)C(=O)N1)[C@H](C)O)C(N)=O` [(62)] (H-[dR][dK][dC]GF[dC][dW][dT][dK][dV]-NH2; disulfide 3-6) was tested. Which IC50 did it give?
Its IC50 is 533 µM.

Which IC50 does the source give for `CC(C)[C@@H](NC(=O)[C@@H](Cc1ccc(O)cc1)NC(=O)[C@H](NC(=O)[C@@H](Cc1c[nH]c2ccccc12)NC(=O)[C@H]1CSSC[C@@H](NC(=O)[C@@H](CCCCN)NC(=O)[C@H](N)CCCNC(=N)N)C(=O)NCC(=O)N[C@@H](Cc2ccccc2)C(=O)N1)[C@H](C)O)C(N)=O` [(63)] (H-[dR][dK][dC]GF[dC][dW][dT][dY][dV]-NH2; disulfide 3-6) here?
Its IC50 is 19.3 µM.

With `CC(C)[C@@H](NC(=O)[C@@H](Cc1c[nH]c2ccccc12)NC(=O)[C@H](NC(=O)[C@@H](Cc1ccc(O)cc1)NC(=O)[C@H]1CSSC[C@@H](NC(=O)[C@@H](CCCCN)NC(=O)[C@H](N)CCCNC(=N)N)C(=O)NCC(=O)N[C@@H](Cc2ccccc2)C(=O)N1)[C@H](C)O)C(N)=O` [(64)] (H-[dR][dK][dC]GF[dC][dY][dT][dW][dV]-NH2; disulfide 3-6) as the compound, how does the IC50 read?
The IC50 was 46.2 µM.

With `CC[C@@H](C)[C@H]1NC(=O)[C@H]([C@@H](C)CC)NC(=O)[C@H](NC(=O)[C@@H](CCCCN)NC(=O)[C@H](N)CCCNC(=N)N)CSSC[C@H](C(=O)N[C@H](Cc2c[nH]c3ccccc23)C(=O)N[C@@H](C(=O)N[C@H](Cc2c[nH]c3ccccc23)C(=O)N[C@@H](C(N)=O)C(C)C)[C@H](C)O)NC1=O` [(67)] (H-[dR][dK][dC]I[dI][dC][dW][dT][dW][dV]-NH2; disulfide 3-6) as the compound, how does the IC50 read?
Its IC50 is 11.1 µM.

With `CC(C)[C@@H](NC(=O)[C@@H](Cc1c[nH]c2ccccc12)NC(=O)[C@H](NC(=O)[C@@H](Cc1c[nH]c2ccccc12)NC(=O)[C@H]1CSSC[C@@H](NC(=O)[C@@H](CCCCN)NC(=O)[C@H](N)CCCNC(=N)N)C(=O)NCC(=O)N(C)[C@@H](Cc2ccccc2)C(=O)N1)[C@H](C)O)C(N)=O` [(72)] (H-[dR][dK][dC]G[NMeF][dC][dW][dT][dW][dV]-NH2; disulfide 3-6) as the compound, how does the IC50 read?
Its IC50 is 37.7 µM.

`CC(C)[C@@H](NC(=O)[C@@H](Cc1c[nH]c2ccccc12)NC(=O)[C@H](NC(=O)[C@@H](Cc1c[nH]c2ccccc12)NC(=O)[C@H]1CSSC[C@@H](NC(=O)[C@@H](CCCCN)NC(=O)[C@H](N)CCCNC(=N)N)C(=O)NCC(=O)N[C@@H](Cc2ccc3ccccc3c2)C(=O)N1)[C@H](C)O)C(N)=O` [(73)] (H-[dR][dK][dC]G[2Nal][dC][dW][dT][dW][dV]-NH2; disulfide 3-6) was tested. Which IC50 did it give?
Its IC50 is 3.2 µM.

With `CC(C)[C@H](NC(=O)[C@H]1CSSC[C@@H](NC(=O)[C@@H](CCCCN)NC(=O)[C@H](N)CCCNC(=N)N)C(=O)NCC(=O)N[C@@H](Cc2ccccc2)C(=O)N1)C(=O)N[C@H](Cc1c[nH]c2ccccc12)C(=O)N[C@@H](C(=O)N[C@H](Cc1c[nH]c2ccccc12)C(N)=O)[C@H](C)O` [(75)] (H-[dR][dK][dC]GF[dC]V[dW][dT][dW]-NH2; disulfide 3-6) as the compound, how does the IC50 read?
Its IC50 is 6 µM.

Which IC50 does the source give for `CC(C)[C@@H](NC(=O)[C@H]1CCCN1C(=O)[C@H](NC(=O)[C@@H](Cc1c[nH]c2ccccc12)NC(=O)[C@H]1CSSC[C@@H](NC(=O)[C@@H](CCCCN)NC(=O)[C@H](N)CCCNC(=N)N)C(=O)NCC(=O)N[C@@H](Cc2ccccc2)C(=O)N1)[C@H](C)O)C(N)=O` [(77)] (H-[dR][dK][dC]GF[dC][dW][dT][dP][dV]-NH2; disulfide 3-6) here?
Its IC50 is 2270 µM.

How did the IC50 turn out when `CC(C)[C@@H](NC(=O)[C@@H](Cc1ccc2ccccc2c1)NC(=O)[C@H](NC(=O)[C@@H](Cc1c[nH]c2ccccc12)NC(=O)[C@H]1CSC[C@@H](NC(=O)[C@@H](CCCCN)NC(=O)[C@H](N)CCCNC(=N)N)C(=O)NCC(=O)N[C@@H](Cc2ccccc2)C(=O)N1)[C@H](C)O)C(N)=O` [(78)] was run?
Its IC50 is 50.7 µM.

How did the IC50 turn out when `CC(C)[C@@H](NC(=O)[C@@H](Cc1c[nH]c2ccccc12)NC(=O)[C@H](NC(=O)[C@@H](Cc1c[nH]c2ccccc12)NC(=O)[C@H]1CSC[C@@H](NC(=O)[C@@H](CCCCN)NC(=O)[C@H](N)CCCNC(=N)N)C(=O)NCC(=O)N[C@@H](Cc2ccccc2)C(=O)N1)[C@H](C)O)C(N)=O` [(81)] was run?
The IC50 was 10.6 µM.

How did the IC50 turn out when `CC(C)[C@@H](NC(=O)[C@@H](Cc1c[nH]c2ccccc12)NC(=O)[C@H](NC(=O)[C@@H]1CCCN1C(=O)[C@H]1CSSC[C@@H](NC(=O)[C@@H](CCCCN)NC(=O)[C@H](N)CCCNC(=N)N)C(=O)NCC(=O)N[C@@H](Cc2ccccc2)C(=O)N1)[C@H](C)O)C(N)=O` [(82)] (H-[dR][dK][dC]GF[dC]P[dT][dW][dV]-NH2; disulfide 3-6) was run?
Its IC50 is 547 µM.

Source: patent US5753617A, “Peptide inhibitors of cellular adhesion” (Centocor, Inc., priority 1995, dated 1998)
